Measured values reported in publication PMC10066322 (Scientific Reports, 2023).

Assays:
PARN1-430 = biological target: T1, PARN1-430 (Homo sapiens, UniProt O95453); test: Gel assay of poly(A) RNA shortening by PARN1-430; type: biochemical
T1 construct: expression of the C-terminal truncated protein (1-430 aa of PARN) was soluble; His tag (from the pCold I vector); made in house; host or cells: E. coli Rosetta 2 DE
T1 sequence (O95453 1-430): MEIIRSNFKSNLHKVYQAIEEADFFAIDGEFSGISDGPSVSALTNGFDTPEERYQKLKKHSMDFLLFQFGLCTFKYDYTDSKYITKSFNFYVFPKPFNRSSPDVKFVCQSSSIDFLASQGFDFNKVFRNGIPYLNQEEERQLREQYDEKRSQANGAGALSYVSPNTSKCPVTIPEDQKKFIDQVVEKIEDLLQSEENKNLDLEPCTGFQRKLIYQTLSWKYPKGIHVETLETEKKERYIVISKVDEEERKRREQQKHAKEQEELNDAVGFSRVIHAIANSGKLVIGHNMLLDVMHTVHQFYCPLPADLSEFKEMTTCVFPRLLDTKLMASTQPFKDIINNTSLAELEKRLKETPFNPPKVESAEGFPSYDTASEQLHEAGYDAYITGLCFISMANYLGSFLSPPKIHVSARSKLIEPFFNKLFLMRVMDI
Description: PARN1-430 was incubated with a fluorescently labeled RNA with a CCUUUCC sequence followed by a 9 nucleotide-long poly(A) tail and the reaction product was visualized on denaturing acrylamide gels. We observed that PARN removed the 3′ oligo(A) tail from the RNA substrate (Fig. 2c and d). […] Moreover, we observed that PARN is inhibited when treated with adenosine monophosphate (AMP), as has been reported previously.
1 µL of protein (73 nM as final concentration) (stock protein is diluted in 1× lysis buffer (HEPES KOH, pH 7.4, 30 mM, KOAc 100 mM, and Mg(Oac)2 2 mM) was added to 4 µL of 2.5× reaction buffer (Tris–HCl pH 7.4, 10 mM, KCl 50 mM, MgCl2 5 mM). If drug was added, reaction was pre-incubated with drugs for 10 min before 5 µL of RNA (5 µM as final concentration) was added. The reaction was incubated at 37 °C for 20 min. After the incubation, the reaction was either diluted with 2× loading buffer and heated to 95 °C for 5 min for gel or quenched by adding 10 µL of quencher solution (30 µM of 3′-BHQ labeled quench DNA in 1% SDS). Quenched reaction was incubated at room temperature for 10–60 min and fluorescence was measured using Fluorescein wavelength measurement.
15% TBE-Urea gel (Thermo Fisher Scientific) was prerun at 20W for 30 min. RNAs from the reaction was loaded into 15% TBE gels and run at 300 V for 35 min. The gel was visualized using iBright (Invitrogen FL1500).

hTR levels in Hela cells = hTR levels in Hela cells by RT-qPCR; type: cell-based, human; conditions: 50 µM, 2 days, RT-qPCR vs DMSO
Description: 48 h after transfection/drug treatment, cells were collected for either RNA or protein analysis.
Extracted total RNA was reverse transcribed using Mir-X miRNA first strand synthesis kit (Taraka, Cat # 638315) to make cDNA and qPCR was perfomred with iQ SYBR Green Supermix (BioRad, Cat. No. 1708880) with […] (forward primer) and […] (reverse primer) for hTR. The RNA levels were normalized using 5S rRNA as a housekeeping gene.

PARN level in Hela cells = test: Western blot of PARN protein level in Hela cells; type: cell-based, human; conditions: 50 μM, 2 days
From the text: The blot was blotted against anti-PARN antibody. (b) Quantification of the changes in PARN levels of western blot using GAPDH as loading controls. siPARN and drug treatments were normalized to scramble siRNA and DMSO controls, respectively. siPARN and drug treatment data were compared to scr and DMSO data, respectively. One-way ANOVA, multiple comparisons test. Average ± SD, N = 3 biological replicates, n = 1. […] (d) Quantification of miR-21-5p levels normalized to U1 RNA. One-way ANOVA, multiple comparisons test, average ± SD, N = 3 biological replicates, n = 1. […] One-way ANOVA, multiple comparisons test, average ± SD, N = 3 biological replicates, n = 2. (f) Representative northern blot showing that miR-21-5p levels decreased in TH11, TH15, and TH16 treatments. […] (g) Quantification of miR-21-5p levels normalized to U1 RNA. […] For nothern blot and RT-qPCR quantifications, Scr and DMSO controls were independently set to 1 and used as control for siPARN and drug treatments, respectively. *P < 0.05, **P < 0.005, ***P < 0.001, ****P < 0.0001, n.s. was not indicated. […]
Cells was lysed with 2× lysis buffer (2.5% SDS, 4% BME, protease inhibitor) and was separated on a 4–12% Bis–Tris NuPage gel (ThermoFisher) and transferred to protran membrane (Amer- sham). […] Blot was quantified using ImageJ and normalized to GAPDH levels (GAPDH antibody (0411) HRP) (Santa Cruz Biotechnology, sc-47724 HRP).

[1] = biological target: ACK1 (activated CDC42 kinase 1); conditions: cited from earlier work

Cc1ccc(Nc2ncc3c(n2)N(C)C(=O)N(c2cc(NC(=O)c4cccc(C(F)(F)F)c4)ccc2C)C3)cn1 [GNF-7]
inhibitory effect on PARN1-430, gel assay (PARN1-430): most effective PARN1-430 inhibitor
hTR levels (hTR levels in Hela cells): decreased
PARN level (western blot) (PARN level in Hela cells): do not affect PARN level
IC50 [1]: 0.025 µM
